Our source for the IC50 values is patent publication US10336755B2, “Fused pyrazole derivatives, preparation method thereof, and use thereof in treatment of cancers, inflammation and immune diseases” (Beijing InnoCare Pharma Tech Co., Ltd., priority 2016, dated 2019).

As a reminder, the IC50 is the concentration that gives 50% inhibition. A low value points to inhibition by little substance.

Chain of Bruton tyrosine kinase (BTK) (Q06187 whole entry): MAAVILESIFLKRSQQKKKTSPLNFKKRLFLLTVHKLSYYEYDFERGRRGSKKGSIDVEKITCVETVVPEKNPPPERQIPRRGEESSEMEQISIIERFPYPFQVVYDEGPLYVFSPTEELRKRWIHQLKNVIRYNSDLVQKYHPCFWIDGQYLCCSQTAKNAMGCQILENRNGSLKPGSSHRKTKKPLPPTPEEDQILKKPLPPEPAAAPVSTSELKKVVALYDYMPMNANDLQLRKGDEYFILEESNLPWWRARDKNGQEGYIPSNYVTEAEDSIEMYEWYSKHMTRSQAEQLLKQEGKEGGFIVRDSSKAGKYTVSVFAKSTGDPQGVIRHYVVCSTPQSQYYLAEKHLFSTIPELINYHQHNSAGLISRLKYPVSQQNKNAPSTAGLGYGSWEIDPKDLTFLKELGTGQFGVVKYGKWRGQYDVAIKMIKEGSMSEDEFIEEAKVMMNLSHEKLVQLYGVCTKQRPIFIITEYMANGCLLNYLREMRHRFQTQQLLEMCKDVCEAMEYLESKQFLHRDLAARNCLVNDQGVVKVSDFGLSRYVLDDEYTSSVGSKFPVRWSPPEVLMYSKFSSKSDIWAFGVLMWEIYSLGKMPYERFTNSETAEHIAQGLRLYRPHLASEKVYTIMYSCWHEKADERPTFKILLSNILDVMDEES

The experiment has as its target Bruton tyrosine kinase (BTK) (Homo sapiens (Human), UniProt Q06187). Briefly: BTK Enzyme Activity Testing (in vitro kinase assay, ADP-Glo kinase assay kit). Format: biochemical. Particulars: BTK kinase (full length with His-Tag), 50 uM ATP in substrate solution, 30 min pre-incubation, 60 min reaction, 10 concentration points. The protocol: An in vitro kinase assay is used to evaluate the effect of the inventive compounds on Bruton tyrosine kinase (BTK) activity.
The experimental method is generally described as follows:
In vitro activity of BTK is measured by detecting ADP produced in a kinase reaction with an ADP-Glo™ kinase assay kit from Promega Company. In the kinase assay, the kinase consumes ATP to phosphorylate the substrate, while producing ADP. ADP-Glo reagent then terminates the kinase reaction and completely consumes the remaining ATP. Finally, a kinase detection reagent is added to convert generated ADP into new ATP. Luciferase in the detection reagent is capable of catalyzing fluorescein with the participation of ATP and O2 to produce oxidized fluorescein, AMP, and generate light quantum, thereby converting a chemical signal into an optical signal (Luminecence). The intensity of optical signal is positively correlated with the production of ADP in the kinase reaction, so that the activity of kinase BTK can be thereby quantitatively determined.
All assays are conducted at a constant temperature of 23° C., using a Corning 3674 Type white 384-well plate; the BTK kinase (full length with His-Tag) is expressed and purified internally by the company; the substrate of kinase is polypeptide (4:1 Glu,Tyr) (from SignalChem) and ATP (from Sigma); and a microplate reader EnVision (Perkin Elmer) is used for reading an optical signal. The assay buffer includes 40 mM Tris-HCl (pH 7.5), 10 mM MgCl2 (Sigma), 2 mM MnCl2 (Sigma), 0.05 mM DTT (Sigma), and 0.01% BSA (Sigma); the BTK kinase is diluted with the assay buffer to a concentration of 1.6 ng/uL as a kinase reaction solution; and the substrate reaction solution comprises 0.2 mg/mL polypeptide substrate and 50 uM ATP.
Compound's IC50 is calculated from 10 concentration points by the following method. The compound is dissolved and diluted in 100% DMSO to a concentration of 1 mM, followed by a serial 3× dilution with DMSO to a minimum concentration of 0.05 uM. Each concentration stock is further diluted 40× with the assay buffer. To a 384-well assay plate are added 1 uL of a series of compound solutions and 2 uL of the kinase reaction solution, followed by mixing homogeneously, and incubating in the dark at room temperature. After in the dark for 30 min, 2 uL of the substrate reaction solution is added to allowed the total reaction volume to 5 uL. The reaction mixture is incubated in the dark at room temperature in the dark for another 60 min. An equal volume of 5 uL ADP-Glo™ reagent is then added to terminate the reaction. The resulting mixture is homogeneously mixed, and stands at room temperature for 40 min. Finally, 10 uL of the kinase detection reagent is added, stands at room temperature for 30 min, and then a value is read on Envision.
Percent inhibition is calculated based on the following equation: Inhibition %=[1−(RLUcompound−RLUmin)/(RLUmax−RLUmin)]×100 wherein RLUcompound is the luminescence reading at a given concentration of compound, RLUmin is the luminescence reading in the absence of kinase, and RLUmax is the luminescence reading in the absence of compound. IC50 of the compound is calculated by using a XLfit program in Excel.
(In general: ADP-Glo turns the ADP formed in a reaction into a luminescent signal.)
Turning to `C=CC(=O)N1CCCC(c2cc3cn[nH]c3c(-c3ccc(CN4CCOCC4)cc3)n2)C1` (centres unmarked) [Compound 1, 1-(3-(7-(4-(morpholinomethyl)phenyl)-1H-pyrazolo[3,4-c]pyridin-5-yl)piperidin-1-yl)prop-2-en-1-one], the IC50 fell in the range of 100 to 500 nM. Then `C=CC(=O)N1CCCC(c2cc3cn[nH]c3c(-c3ccc(OC4COC4)cc3)n2)C1` (centres unmarked) [Compound 2, 1-(3-(7-(4-(oxetan-3-oxy)phenyl)-1H-pyrazolo[3,4-c]pyridin-5-yl)piperidin-1-yl)prop-2-en-1-one], with 100 to 500 nM. `C=CC(=O)N1CCCC(c2cc3cn[nH]c3c(-c3ccc(Oc4ccccc4)cc3)n2)C1` (centres unmarked) [Compound 3, 1-(3-(7-(4-phenoxyphenyl)-1H-pyrazolo[3,4-c]pyridin-5-yl)piperidin-1-yl)prop-2-en-1-one] gave an IC50 of less than 100 nM.

The compound `CN(C)C/C=C/C(=O)N1CCCC(c2cc3cn[nH]c3c(-c3ccc(Oc4ccccc4)cc3)n2)C1` (centres unmarked) [Compound 4, (E)-4-(dimethylamino)-1-(3-(7-(4-phenoxyphenyl)-1H-pyrazolo[3,4-c]pyridin-5-yl)piperidin-1-yl)but-2-en-1-one] had an IC50 of less than 100 nM.

For `C=CS(=O)(=O)N1CCCC(c2cc3cn[nH]c3c(-c3ccc(Oc4ccccc4)cc3)n2)C1` (centres unmarked) [Compound 5, 7-(4-phenoxyphenyl)-5-(1-(ethenylsulfonyl)piperidin-3-yl)-1H-pyrazolo[3,4-c]pyridine], the IC50 is less than 100 nM. As for `C=CC(=O)N1CCC(c2cc3cn[nH]c3c(-c3ccc(Oc4ccccc4)cc3)n2)C1` (centres unmarked) [Compound 6, 1-(3-(7-(4-phenoxyphenyl)-1H-pyrazolo[3,4-c]pyridin-5-yl)pyrrolidin-1-yl)prop-2-en-1-one], the IC50 was less than 100 nM. `C=CC(=O)N1CCC(c2cc3cn[nH]c3c(-c3ccc(Oc4ccccc4)cc3)n2)CC1` [Compound 7, 1-(4-(7-(4-phenoxyphenyl)-1H-pyrazolo[3,4-c]pyridin-5-yl)piperidin-1-yl)prop-2-en-1-one]: the IC50 is less than 100 nM.

In turn, `C=CC(=O)Nc1cccc(-c2cc3cn[nH]c3c(-c3ccc(Oc4ccccc4)cc3)n2)c1` [Compound 8, N-(3-(7-(4-phenoxyphenyl)-1H-pyrazolo[3,4-c]pyridin-5-yl)phenyl)acrylamide] showed an IC50 of less than 100 nM. As for `C=CC(=O)N1CCN(c2cc3cn[nH]c3c(-c3ccc(Oc4ccccc4)cc3)n2)CC1` [Compound 9, 1-(4-(7-(4-phenoxyphenyl)-1H-pyrazolo[3,4-c]pyridin-5-yl)piperazin-1-yl)prop-2-en-1-one], the IC50 is less than 100 nM. Then `C=CC(=O)NC1CCN(c2cc3cn[nH]c3c(-c3ccc(Oc4ccccc4)cc3)n2)C1` (centres unmarked) [Compound 10, N-(1-(7-(4-phenoxyphenyl)-1H-pyrazolo[3,4-c]pyridin-5-yl)pyrrolidin-3-yl)acrylamide], with less than 100 nM; and `C=CC(=O)N1CCC(Nc2cc3cn[nH]c3c(-c3ccc(Oc4ccccc4)cc3)n2)C1` (centres unmarked) [Compound 11, 1-(3-((7-(4-phenoxyphenyl)-1H-pyrazolo[3,4-c]pyridin-5-yl)amino)pyrrolidin-1-yl)prop-2-en-1-one], with less than 100 nM. `C=CC(=O)N1CCC(c2cc3cn[nH]c3c(-c3ccc(OC4CCCC4)cc3)n2)CC1` [Compound 12] registered an IC50 of less than 100 nM.

Compound `C=CC(=O)N1CCC(c2cc3cn[nH]c3c(-c3ccc(Oc4ccccn4)cc3)n2)CC1` [Compound 13, 1-(4-(7-(4-(pyridin-2-oxy)phenyl)-1H-pyrazolo[3,4-c]pyridin-5-yl)piperidin-1-yl)prop-2-en-1-one] registered an IC50 of less than 100 nM. With `C=CC(=O)N1CCC(c2cc3cn[nH]c3c(-c3ccc(Oc4ccccc4)cc3F)n2)CC1` [Compound 14, 1-(4-(7-(2-fluoro-4-phenoxyphenyl)-1H-pyrazolo[3,4-c]pyridin-5-yl)piperidin-1-yl)prop-2-en-1-one], the IC50 is less than 100 nM. As for `C=CC(=O)N1CCC(c2cc3cn[nH]c3c(-c3ccc(Oc4cccc(F)c4)cc3)n2)CC1` [Compound 15, 1-(4-(7-(4-(3-fluorophenoxyl)phenyl)-1H-pyrazolo[3,4-c]pyridin-5-yl)piperidin-1-yl)prop-2-en-1-one], the half-maximal inhibitory concentration (IC50) was less than 100 nM.

`C=CC(=O)N1CCC(c2cc3cn[nH]c3c(-c3ccc(CN4CCCC4)cc3)n2)CC1` [Compound 16, 1-(4-(7-(4-(pyrrolidin-1-ylmethyl)phenyl)-1H-pyrazolo[3,4-c]pyridin-5-yl)piperidin-1-yl)prop-2-en-1-one] displayed an IC50 greater than 500 nM. The compound `CC#CC(=O)N1CCCC(c2cc3cn[nH]c3c(-c3ccc(Oc4ccccc4)cc3)n2)C1` (centres unmarked) [Compound 17, 1-(3-(7-(4-phenoxyphenyl)-1H-pyrazolo[3,4-c]pyridin-5-yl)piperidin-1-yl)but-2-yn-1-one] displayed an IC50 of 100 to 500 nM. The value for `C=CC(=O)N1CCC(c2cc3cn[nH]c3c(-c3ccc(C(=O)Nc4ccccn4)cc3)n2)C1` (centres unmarked) [Compound 18, 4-(5-(1-acryloylpyrrolidin-3-yl)-1H-pyrazolo[3,4-c]pyridin-7-yl)-N-(pyridin-2-yl) benzamide] was less than 100 nM; that for `CC#CC(=O)N1CCC(c2cc3cn[nH]c3c(-c3ccc(C(=O)Nc4ccccn4)cc3)n2)C1` (centres unmarked) [Compound 19, 4-(5-(1-(but-2-ynoyl)pyrrolidin-3-yl)-1H-pyrazolo[3,4-c]pyridin-7-yl)-N-(pyridin-2-yl)benzamide] was 100 to 500 nM; that for `C=CC(=O)N1CCCC(c2cc(-c3ccc(Oc4ccccc4)cc3)c3[nH]ncc3c2)C1` (centres unmarked) [Compound 20, 1-(3-(7-(4-phenoxyphenyl)-1H-indazol-5-yl)piperidin-1-yl)prop-2-en-1-one] was less than 100 nM. Compound `C=CC(=O)N1CCCC1c1cc2cn[nH]c2c(-c2ccc(Oc3ccccc3)cc2)n1` (centres unmarked) [Compound 21, 1-(2-(7-(4-phenoxyphenyl)-1H-pyrazolo[3,4-c]pyridin-5-yl)pyrrolidin-1-yl)prop-2-en-1-one] displayed an IC50 of less than 100 nM.

With `C=CC(=O)N1CC[C@H](c2cc3cn[nH]c3c(-c3ccc(Oc4ccccc4)cc3)n2)C1` [Compound 22a, (S)-1-(3-(7-(4-phenoxyphenyl)-1H-pyrazolo[3,4-c]pyridin-5-yl)pyrrolidin-1-yl)prop-2-en-1-one], the IC50 is less than 100 nM.

In the case of `C=CC(=O)N1CC[C@@H](c2cc3cn[nH]c3c(-c3ccc(Oc4ccccc4)cc3)n2)C1` [Compound 22b, (R)-1-(3-(7-(4-phenoxyphenyl)-1H-pyrazolo[3,4-c]pyridin-5-yl)pyrrolidin-1-yl)prop-2-en-1-one], the IC50 is less than 100 nM.
